{"source": "patent US20210059959A1", "about": "“USE OF CANNABINOIDS IN THE TREATMENT OF MENTAL DISORDERS” (GW Pharma Limited, priority 2015, published 2021)", "system": "participants with schizophrenia or related psychotic disorder", "assay": "Scale for the Assessment of Negative Symptoms (SANS), double-blind placebo-controlled study of CBD as adjunctive therapy", "type": "in vivo, human", "description": "Example 1 below describes the use of a highly purified cannabis extract comprising cannabidiol (CBD) in a human clinical trial. Example 1 describes data produced in a double-blind, randomised, placebo-controlled, parallel group study of highly purified CBD as adjunctive therapy in first line treatment of schizophrenia or related psychotic disorder.\nAn eight-week, multi-centre, double-blind, randomised, placebo-controlled, parallel group study was conducted with the aim to determine the efficacy, safety and tolerability of highly purified CBD as adjunctive therapy in first line treatment of schizophrenia or related psychotic disorder.\nThis study evaluated the efficacy of highly purified CBD compared with placebo on the participant's PANSS Total score, ‘P’, ‘N’, ‘G’, SANS and BACS scores.\nChanges from baseline in PANSS scores (Total, ‘P’, ‘N’ and ‘G’), SANS and BACS were recorded at the start of the study (baseline) and at the end of treatment (after 6 weeks treatment with CBD or placebo).\nFor inclusion in the study participants were required to be male or female aged 18 to 65 years, diagnosed with schizophrenia or a related psychotic disorder (such as schizoaffective or schizophreniform disorder) as defined by the Diagnostic and Statistical Manual of Mental Disorders Version 4. Participants must have been treated for a minimum of four-weeks and be on a stable dose of their current antipsychotic medication. […] A PANSS score in excess of 60 infers that the patient has symptoms related to schizophrenia or related disorders.\nThe participants were randomised to one of two treatment groups which each consisted of 39 participants. Treatment was administered as either 5 ml CBD (100 mg/ml) oral solution to be taken twice daily or 5 ml matched placebo oral solution to be taken twice daily.\nScale for the Assessment of Negative Symptoms (SANS)\nSANS assesses five symptom complexes to obtain clinical ratings of negative symptoms in participants with schizophrenia or related psychotic disorder. They are: affective blunting; alogia (impoverished thinking); avolition/apathy; anhedonia/asociality; and disturbance of attention.\nAssessments are conducted on a six-point scale (0=not at all to 5=severe). This scale was measured at each assessment visit (Visit 1-4)", "key": {"[1]": {"settings": "CBD adjunct, 6 weeks, all patients"}, "[2]": {"settings": "CBD adjunct, 6 weeks, patients on amisulpride"}, "[3]": {"settings": "CBD adjunct, 6 weeks, patients on aripiprazole"}, "[4]": {"settings": "CBD adjunct, 6 weeks, patients on olanzapine"}, "[5]": {"settings": "CBD adjunct, 6 weeks, patients on other antipsychotics"}, "[6]": {"settings": "CBD adjunct, 6 weeks, patients on quetiapine"}, "[7]": {"settings": "CBD adjunct, 6 weeks, patients on risperidone"}}}
{"smiles": "C=C(C)[C@@H]1CCC(C)=C[C@H]1c1c(O)cc(CCCCC)cc1O", "note": "[CBD, Cannabidiol]", "values": [{"measurement": "Change in baseline scores, SANS question 15: Impersistence at work or school", "setting": "[1]", "value": "−0.5"}, {"measurement": "Change in baseline scores, SANS question 18: Recreational interests and activity", "setting": "[1]", "value": "−0.6"}, {"measurement": "Change in baseline scores, SANS question 19: Sexual interest and activity", "setting": "[1]", "value": "−0.4"}, {"measurement": "Change in baseline scores, SANS question 20: Ability to feel closeness and intimacy", "setting": "[1]", "value": "−0.3"}, {"measurement": "Change in baseline scores, SANS question 21: Relationships with friends and peers", "setting": "[1]", "value": "−0.3"}, {"measurement": "Change in baseline scores, SANS question 22: Global rating of anhedonia", "setting": "[1]", "value": "−0.3"}, {"measurement": "Change in baseline scores, SANS question 23: Social inattentiveness", "setting": "[1]", "value": "−0.5"}, {"measurement": "Change in baseline scores, SANS question 24: Inattentiveness during mental status testing", "setting": "[1]", "value": "−0.6"}, {"measurement": "Change in baseline scores, SANS question 25: Global rating of attention", "setting": "[1]", "value": "−0.5"}, {"measurement": "Change in baseline scores, SANS sub-scale 4 (anhedonia/asociality)", "setting": "[1]", "value": "−1.9"}, {"measurement": "Change in baseline scores, SANS sub-scale 5 (disturbance of attention)", "setting": "[1]", "value": "−1.6"}, {"measurement": "Change in baseline scores, SANS total score", "setting": "[1]", "value": "−9.5"}, {"measurement": "Change in baseline scores, SANS question 15: Impersistence at work or school", "setting": "[2]", "value": "−0.5"}, {"measurement": "Change in baseline scores, SANS question 18: Recreational interests and activity", "setting": "[2]", "value": 0.0}, {"measurement": "Change in baseline scores, SANS question 19: Sexual interest and activity", "setting": "[2]", "value": 0.0}, {"measurement": "Change in baseline scores, SANS question 20: Ability to feel closeness and intimacy", "setting": "[2]", "value": "−0.1"}, {"measurement": "Change in baseline scores, SANS question 21: Relationships with friends and peers", "setting": "[2]", "value": "−0.1"}, {"measurement": "Change in baseline scores, SANS question 22: Global rating of anhedonia", "setting": "[2]", "value": "−0.1"}, {"measurement": "Change in baseline scores, SANS question 23: Social inattentiveness", "setting": "[2]", "value": "−0.1"}, {"measurement": "Change in baseline scores, SANS question 24: Inattentiveness during mental status testing", "setting": "[2]", "value": "−0.8"}, {"measurement": "Change in baseline scores, SANS question 25: Global rating of attention", "setting": "[2]", "value": 0.0}, {"measurement": "Change in baseline scores, SANS score", "setting": "[2]", "value": "−2.4"}, {"measurement": "Change in baseline scores, SANS sub-scale 4 (anhedonia/asociality)", "setting": "[2]", "value": "−0.1"}, {"measurement": "Change in baseline scores, SANS sub-scale 5 (disturbance of attention)", "setting": "[2]", "value": "−1.0"}, {"measurement": "Change in baseline scores, SANS question 15: Impersistence at work or school", "setting": "[3]", "value": "−0.3"}, {"measurement": "Change in baseline scores, SANS question 18: Recreational interests and activity", "setting": "[3]", "value": "−0.1"}, {"measurement": "Change in baseline scores, SANS question 19: Sexual interest and activity", "setting": "[3]", "value": "−0.1"}, {"measurement": "Change in baseline scores, SANS question 20: Ability to feel closeness and intimacy", "setting": "[3]", "value": 0.0}, {"measurement": "Change in baseline scores, SANS question 21: Relationships with friends and peers", "setting": "[3]", "value": "−0.1"}, {"measurement": "Change in baseline scores, SANS question 22: Global rating of anhedonia", "setting": "[3]", "value": 0.0}, {"measurement": "Change in baseline scores, SANS question 23: Social inattentiveness", "setting": "[3]", "value": "−0.4"}, {"measurement": "Change in baseline scores, SANS question 24: Inattentiveness during mental status testing", "setting": "[3]", "value": "−0.5"}, {"measurement": "Change in baseline scores, SANS question 25: Global rating of attention", "setting": "[3]", "value": "−0.4"}, {"measurement": "Change in baseline scores, SANS score", "setting": "[3]", "value": "−4.7"}, {"measurement": "Change in baseline scores, SANS sub-scale 4 (anhedonia/asociality)", "setting": "[3]", "value": "−0.2"}, {"measurement": "Change in baseline scores, SANS sub-scale 5 (disturbance of attention)", "setting": "[3]", "value": "−1.3"}, {"measurement": "Change in baseline scores, SANS question 15: Impersistence at work or school", "setting": "[4]", "value": "−1.2"}, {"measurement": "Change in baseline scores, SANS question 18: Recreational interests and activity", "setting": "[4]", "value": "−1.3"}, {"measurement": "Change in baseline scores, SANS question 19: Sexual interest and activity", "setting": "[4]", "value": "−1.0"}, {"measurement": "Change in baseline scores, SANS question 20: Ability to feel closeness and intimacy", "setting": "[4]", "value": "−1.0"}, {"measurement": "Change in baseline scores, SANS question 21: Relationships with friends and peers", "setting": "[4]", "value": "−0.6"}, {"measurement": "Change in baseline scores, SANS question 22: Global rating of anhedonia", "setting": "[4]", "value": "−0.8"}, {"measurement": "Change in baseline scores, SANS question 23: Social inattentiveness", "setting": "[4]", "value": "−0.9"}, {"measurement": "Change in baseline scores, SANS question 24: Inattentiveness during mental status testing", "setting": "[4]", "value": "−0.7"}, {"measurement": "Change in baseline scores, SANS question 25: Global rating of attention", "setting": "[4]", "value": "−0.9"}, {"measurement": "Change in baseline scores, SANS score", "setting": "[4]", "value": "−20.5"}, {"measurement": "Change in baseline scores, SANS sub-scale 4 (anhedonia/asociality)", "setting": "[4]", "value": "−4.9"}, {"measurement": "Change in baseline scores, SANS sub-scale 5 (disturbance of attention)", "setting": "[4]", "value": "−2.5"}, {"measurement": "Change in baseline scores, SANS question 18: Recreational interests and activity", "setting": "[5]", "value": "−0.4"}, {"measurement": "Change in baseline scores, SANS question 19: Sexual interest and activity", "setting": "[5]", "value": "−0.3"}, {"measurement": "Change in baseline scores, SANS question 20: Ability to feel closeness and intimacy", "setting": "[5]", "value": "−0.1"}, {"measurement": "Change in baseline scores, SANS question 21: Relationships with friends and peers", "setting": "[5]", "value": "−0.2"}, {"measurement": "Change in baseline scores, SANS question 22: Global rating of anhedonia", "setting": "[5]", "value": "−0.2"}, {"measurement": "Change in baseline scores, SANS question 23: Social inattentiveness", "setting": "[5]", "value": "−0.9"}, {"measurement": "Change in baseline scores, SANS question 24: Inattentiveness during mental status testing", "setting": "[5]", "value": "−1.3"}, {"measurement": "Change in baseline scores, SANS question 25: Global rating of attention", "setting": "[5]", "value": "−0.3"}, {"measurement": "Change in baseline scores, SANS score", "setting": "[5]", "value": "−10.6"}, {"measurement": "Change in baseline scores, SANS sub-scale 4 (anhedonia/asociality)", "setting": "[5]", "value": "−1.2"}, {"measurement": "Change in baseline scores, SANS sub-scale 5 (disturbance of attention)", "setting": "[5]", "value": "−2.5"}, {"measurement": "Change in baseline scores, SANS question 18: Recreational interests and activity", "setting": "[6]", "value": "−1.3"}, {"measurement": "Change in baseline scores, SANS question 19: Sexual interest and activity", "setting": "[6]", "value": "−1.5"}, {"measurement": "Change in baseline scores, SANS question 20: Ability to feel closeness and intimacy", "setting": "[6]", "value": "−0.4"}, {"measurement": "Change in baseline scores, SANS question 21: Relationships with friends and peers", "setting": "[6]", "value": "−0.7"}, {"measurement": "Change in baseline scores, SANS question 22: Global rating of anhedonia", "setting": "[6]", "value": "−1.3"}, {"measurement": "Change in baseline scores, SANS question 23: Social inattentiveness", "setting": "[6]", "value": "−0.6"}, {"measurement": "Change in baseline scores, SANS question 24: Inattentiveness during mental status testing", "setting": "[6]", "value": "−0.9"}, {"measurement": "Change in baseline scores, SANS question 25: Global rating of attention", "setting": "[6]", "value": "−0.5"}, {"measurement": "Change in baseline scores, SANS score", "setting": "[6]", "value": "−10.4"}, {"measurement": "Change in baseline scores, SANS sub-scale 4 (anhedonia/asociality)", "setting": "[6]", "value": "−5.1"}, {"measurement": "Change in baseline scores, SANS sub-scale 5 (disturbance of attention)", "setting": "[6]", "value": "−1.8"}, {"measurement": "Change in baseline scores, SANS question 15: Impersistence at work or school", "setting": "[7]", "value": "−0.3"}, {"measurement": "Change in baseline scores, SANS question 18: Recreational interests and activity", "setting": "[7]", "value": "−0.3"}, {"measurement": "Change in baseline scores, SANS question 19: Sexual interest and activity", "setting": "[7]", "value": 0.0}, {"measurement": "Change in baseline scores, SANS question 20: Ability to feel closeness and intimacy", "setting": "[7]", "value": 0.0}, {"measurement": "Change in baseline scores, SANS question 21: Relationships with friends and peers", "setting": "[7]", "value": "−0.1"}, {"measurement": "Change in baseline scores, SANS question 22: Global rating of anhedonia", "setting": "[7]", "value": "−0.2"}, {"measurement": "Change in baseline scores, SANS question 23: Social inattentiveness", "setting": "[7]", "value": 0.2}, {"measurement": "Change in baseline scores, SANS question 24: Inattentiveness during mental status testing", "setting": "[7]", "value": "−0.1"}, {"measurement": "Change in baseline scores, SANS question 25: Global rating of attention", "setting": "[7]", "value": 0.0}, {"measurement": "Change in baseline scores, SANS score", "setting": "[7]", "value": "−3.6"}, {"measurement": "Change in baseline scores, SANS sub-scale 4 (anhedonia/asociality)", "setting": "[7]", "value": "−0.4"}, {"measurement": "Change in baseline scores, SANS sub-scale 5 (disturbance of attention)", "setting": "[7]", "value": 0.1}, {"measurement": "Change in baseline scores, SANS question 15: Impersistence at work or school: difference", "setting": "CBD vs placebo, all patients, P = 0.0187", "value": "(−0.4)"}]}
